Test results taken from paper PMC11173687, “Chemical Profile and Healthy Properties of Sicilian Diplotaxis harra subsp. crassifolia (Raf.) Maire” (Molecules, 2024).
One block for each compound: values may come before it.

Tests used:
[1] = ABTS radical scavenging test; conditions: 6 min, room temperature
Method: (§1) The β-carotene bleaching test was performed to investigate the ability of the extract to protect from lipid peroxidation. All test protocols were previously reported. Briefly, in the DPPH test, a solution of DPPH was mixed with extract at different concentrations (10-1000 μg/mL). After that, the mixture was incubated at room temperature for 30 min. The absorbance was read at 517 nm. In the ABTS test, a solution of ABTS radical cation was prepared and, after 12 h, was diluted with ethanol to reach an absorbance of 0.70 at 734 nm. The stabilized ABTS^+ solution was added to extracts at different concentrations (1-400 μg/mL), and the mixture was left to react at room temperature for 6 min. After that, the absorbance was read at 734 nm. Ascorbic acid was employed as a positive control in both the ABTS and DPPH assays. In the FRAP test, a mixture of tripyridyltriazine (TPTZ) solution, FeCl3, and acetate buffer was added to the sample at a concentration of 2.5 mg/mL. After 30 min of incubation at room temperature, the absorbance was measured at 595 nm. Butylated hydroxytoluene (BHT) was used as a positive control. The protection from lipid peroxidation was studied by using the β-carotene bleaching test. […] The mixture was left to react for 30 and 60 min at 45 °C, and the absorbance was read at 470 nm. Propyl gallate was used as a positive control.

[2] = DPPH radical scavenging test; conditions: 30 min, room temperature
Method: as §1

[3] = Ferric Reducing Ability Power (FRAP) test; conditions: at 2.5 mg/mL
Method: as §1

[4] = β-carotene bleaching test (protection from lipid peroxidation)
Method: as §1

- ABTS Test IC50 [1]: 1.7 ± 0.06 µg/mL
- DPPH Test IC50 [2]: 5.0 ± 0.8 µg/mL
Compound: O=C1O[C@H]([C@@H](O)CO)C(O)=C1O [Ascorbic acid, ascorbic acid]

Compound: Cc1cc(C(C)(C)C)c(O)c(C(C)(C)C)c1 [BHT, butylated hydroxytoluene]
- FRAP Test [3]: 63.27 ± 4.35 μM Fe(II)/g

- β-Carotene Bleaching Test IC50 ([4]; 30 min): 1.04 ± 0.04 µg/mL
- β-Carotene Bleaching Test IC50 ([4]; 60 min): 0.09 ± 0.00 µg/mL
Compound: CCCOC(=O)c1cc(O)c(O)c(O)c1 [Propyl gallate, propyl gallate]
